Test results reported in paper PMC12292835, “Amylin Receptor 1 Mutagenesis Revealed a Potential Role of Calcitonin Serine 29 in Receptor Interaction” (Biomedicines, 2025).
Where a SMILES comes first, the peptide text is derived from it. The star is where a group is joined. FITC = O=C1OC2(c3ccc(O)cc3Oc3cc(O)ccc32)c2ccc(NC(=S)*)cc21

Tests used:
[1] = target: T1, amylin receptor 1 ECD with calcitonin receptor D97E mutation (Homo sapiens, UniProt O60894+P30988, D97E); experiment: FP saturation binding, D97E; details: for Average fluorescence intensity change upon receptor ECD binding: % of a free probe intensity, Mean ± S.D., max receptor 3 μM (sCT), 1 μM (AC413); for effect of mutation on binding affinity: in words
T1 construct: pHLsec/hRAMP1.24–111-(GSA)3-hCTR.34–141.D97E-H6 (D-pJS001); H6 (hexahistidine) (C); made in house; host or cells: HEK293 (transient transfection, secreted, N-glycosylated)
Text: (§1) pHLsec-based vectors were used to express wild-type and mutated amylin receptor 1 extracellular domains as secreted proteins to cell culture media. The plasmid DNA construct of the wild-type amylin receptor 1 extracellular domain, pHLsec/hRAMP1.24–111-(GSA)3-hCTR.34–141-H6 (H-pSL005) was previously described. The following DNA vector plasmids were made for this study: pHLsec/hRAMP1.24–111-(GSA)3-hCTR.34–141.D97A-H6 (D-pSL009), pHLsec/hRAMP1.24–111-(GSA)3-hCTR.34–141.D97E-H6 (D-pJS001), pHLsec/hRAMP1.24–111-(GSA)3-hCTR.34–141.D101A-H6 (D-pJJ003), pHLsec/hRAMP1.24–111-(GSA)3-hCTR.34–141.D101E-H6 (D-pJJ002), pHLsec/hRAMP1.24–111-(GSA)3-hCTR.34–141.E123A-H6 (D-pJJ004), pHLsec/hRAMP1.24–111-(GSA)3-hCTR.34–141.E123D-H6 (D-pJJ001), pHLsec/hRAMP1.24–111-(GSA)3-hCTR.34–141.N124A-H6 (D-pJS005), pHLsec/hRAMP1.24–111-(GSA)3-hCTR.34–141.N124D-H6 (D-pJS006), pHLsec/hRAMP1.24–111-(GSA)3-hCTR.34–141.N135A-H6 (D-pJW001), and pHLsec/hRAMP1.24–111-(GSA)3-hCTR.34–141.N135D-H6 (D-pJS002). The mutations were introduced to the calcitonin receptor extracellular domain by using DNA Assembly reaction. Coding sequences of the receptor expression vectors were confirmed with Sanger sequencing by Bionics (Seoul, Republic of Korea). DNA plasmid vectors were extracted and were purified from bacterial cells with NucleoBond® Extra Midi Plus kit (Macherey-Nagel, Germany). The purified DNA vectors were stored at −20 °C until their use for mammalian cell transfection.
(§2) The overall experimental procedure of reconstituting the functional amylin receptor 1 extracellular domain (ECD) as the fusion protein of RAMP1 ECD and the calcitonin receptor ECD was previously described. The wild-type and mutated amylin receptor 1 ECDs were expressed from HEK293 cells with transient transfection with polyethylenimine. The expressed receptor proteins were secreted to cell culture media for 4 days at 37 °C. The media were collected for the receptor protein purification. Initial dialysis was performed with the dialysis buffer (Tris 25 mM (pH 7.4), NaCl 150 mM, and imidazole 10 mM) overnight. […] Then, a size exclusion column chromatography (SEC) was performed with SEC column (Cytiva, HiLoad® 16/600 Superdex® 200 pg) and SEC buffer (Tris 50 mM (pH 7.4), NaCl 150 mM, and glycerol (v/v) 10%) as previously described. As the final step, the purified receptor proteins were dialyzed to storage buffer (HEPES 25 mM (pH 7.4), NaCl 150 mM, and glycerol (v/v) 50 %) and were stored at −60 °C until their use for the receptor–ligand binding assay. […]
(§3) The overall procedure of the FP binding assay with a saturation binding format was previously described. […] FITC-labeled peptide probes were incubated for 1 h at room temperature with the purified receptor protein prior to fluorescence signal measurement. […]

[2] = target: T2, amylin receptor 1 ECD with calcitonin receptor N135A mutation (Homo sapiens, UniProt O60894+P30988, N135A); experiment: FP saturation binding, N135A; details: for Average fluorescence intensity change upon receptor ECD binding: % of a free probe intensity, Mean ± S.D., max receptor 3 μM (sCT), 1 μM (AC413); for effect of mutation on binding affinity: in words
T2 construct: pHLsec/hRAMP1.24–111-(GSA)3-hCTR.34–141.N135A-H6 (D-pJW001); H6 (hexahistidine) (C); made in house; host or cells: HEK293 (transient transfection, secreted, N-glycosylated)
Text: as §1, §2, §3

[3] = target: T3, amylin receptor 1 ECD with calcitonin receptor N124D mutation (Homo sapiens, UniProt O60894+P30988, N124D); experiment: FP saturation binding, N124D; details: for Average fluorescence intensity change upon receptor ECD binding: % of a free probe intensity, Mean ± S.D., max receptor 3 μM (sCT), 1 μM (AC413); for effect of mutation on binding affinity: compared with N124A, in words
T3 construct: pHLsec/hRAMP1.24–111-(GSA)3-hCTR.34–141.N124D-H6 (D-pJS006); H6 (hexahistidine) (C); made in house; host or cells: HEK293 (transient transfection, secreted, N-glycosylated)
Text: as §1
The overall experimental procedure of reconstituting the functional amylin receptor 1 extracellular domain (ECD) as the fusion protein of RAMP1 ECD and the calcitonin receptor ECD was previously described. The wild-type and mutated amylin receptor 1 ECDs were expressed from HEK293 cells with transient transfection with polyethylenimine. The expressed receptor proteins were secreted to cell culture media for 4 days at 37 °C. The media were collected for the receptor protein purification. Initial dialysis was performed with the dialysis buffer (Tris 25 mM (pH 7.4), NaCl 150 mM, and imidazole 10 mM) overnight. […] Then, a size exclusion column chromatography (SEC) was performed with SEC column (Cytiva, HiLoad® 16/600 Superdex® 200 pg) and SEC buffer (Tris 50 mM (pH 7.4), NaCl 150 mM, and glycerol (v/v) 10%) as previously described. As the final step, the purified receptor proteins were dialyzed to storage buffer (HEPES 25 mM (pH 7.4), NaCl 150 mM, and glycerol (v/v) 50 %) and were stored at −60 °C until their use for the receptor–ligand binding assay. All purification procedures were performed at 4 °C.
Two peptide probes labeled with fluorescein isothiocyanate (FITC) were used for this study: FITC-labeled salmon calcitonin (sCT) fragment(22–32) and FITC-labeled AC413(6–25) with Y25P mutation. These peptide probes were custom-synthesized from Genscript (Piscataway, NJ, USA). These peptides were used as the probes for the receptor–ligand binding assay. These peptides were HPLC-purified with at least 85% purity by Genscript (Piscataway, NJ, USA). Mass spectrometry performed at Genscript confirmed the correct molecular mass of the synthesized peptides. The extinction coefficient of FITC (63,000 M^−1·cm^−1 at 495 nm, pH 7.0) was used to calculate the concentration of the peptides.
The overall procedure of the FP binding assay with a saturation binding format was previously described. A total of 10 nM FITC-labeled sCT(22–32) and 10 nM FITC-labeled AC413(6–25) with Y25P mutation were used for the receptor–ligand binding assay. For the saturation binding format, the non-linear regression curves were generated by using user-defined equations that were previously described for affinity calculation. FITC-labeled peptide probes were incubated for 1 h at room temperature with the purified receptor protein prior to fluorescence signal measurement. […]

[4] = target: T4, amylin receptor 1 ECD wild-type (WT) (Homo sapiens, UniProt O60894+P30988); experiment: FP saturation binding, FITC peptide probes, wild-type amylin receptor 1 ECD; details: for Average fluorescence intensity change upon receptor ECD binding: % of a free probe intensity, Mean ± S.D., WT, max receptor 3 μM (sCT), 1 μM (AC413)
T4 construct: pHLsec/hRAMP1.24–111-(GSA)3-hCTR.34–141-H6 (H-pSL005); H6 (hexahistidine) (C); made in house; host or cells: HEK293 (transient transfection, secreted, N-glycosylated)
Text: as §1
The overall experimental procedure of reconstituting the functional amylin receptor 1 extracellular domain (ECD) as the fusion protein of RAMP1 ECD and the calcitonin receptor ECD was previously described. The wild-type and mutated amylin receptor 1 ECDs were expressed from HEK293 cells with transient transfection with polyethylenimine. […]
as §3

[5] = target: T5, amylin receptor 1 ECD with calcitonin receptor D101A mutation (Homo sapiens, UniProt O60894+P30988, D101A); experiment: FP saturation binding, D101A; details: for Average fluorescence intensity change upon receptor ECD binding: % of a free probe intensity, Mean ± S.D., max receptor 1 μM; for effect of mutation on binding affinity: in words
T5 construct: pHLsec/hRAMP1.24–111-(GSA)3-hCTR.34–141.D101A-H6 (D-pJJ003); H6 (hexahistidine) (C); made in house; host or cells: HEK293 (transient transfection, secreted, N-glycosylated)
Text: as §1, §2, §3

T2 sequence (O60894 24-111): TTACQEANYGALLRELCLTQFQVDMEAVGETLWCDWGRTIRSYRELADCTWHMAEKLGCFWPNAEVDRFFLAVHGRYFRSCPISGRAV
T2 sequence (P30988 34-141 N135A): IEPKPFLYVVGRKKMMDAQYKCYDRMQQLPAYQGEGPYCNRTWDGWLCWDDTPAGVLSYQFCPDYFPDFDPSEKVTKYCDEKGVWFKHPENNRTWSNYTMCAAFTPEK
T4 sequence (O60894 24-111): as the sequence (O60894 24-111) above
T4 sequence (P30988 34-141): as the sequence (P30988 34-141 N135A) above, with A102N counted along it
T5 sequence (O60894 24-111): as the sequence (O60894 24-111) above
T5 sequence (P30988 34-141 D101A): as the sequence (P30988 34-141 N135A) above, with D68A, A102N counted along it
T3 sequence (O60894 24-111): as the sequence (O60894 24-111) above
T3 sequence (P30988 34-141 N124D): as the sequence (P30988 34-141 N135A) above, with N91D, A102N counted along it
T1 sequence (O60894 24-111): as the sequence (O60894 24-111) above
T1 sequence (P30988 34-141 D97E): as the sequence (P30988 34-141 N135A) above, with D64E, A102N counted along it

Average fluorescence intensity change upon receptor ECD binding [1]	Average fluorescence intensity change upon receptor ECD binding [2]	effect of mutation on binding affinity [2]	Average fluorescence intensity change upon receptor ECD binding [3]	effect of mutation on binding affinity ([3]; listed as salmon calcitonin fragment)	Average fluorescence intensity change upon receptor ECD binding [4]	stronger affinity of FITC-labeled over non-labeled peptide ([4]; KD 81 nM versus previously reported KI 2.5 μM of non-labeled sCT(22–32))	Average fluorescence intensity change upon receptor ECD binding [5]	effect of mutation on binding affinity [5]	effect of mutation on binding affinity ([3]; listed as AC413 fragment)	SMILES	effect of mutation on binding affinity [1]	effect of mutation on binding affinity [3]
78 ± 4%	81 ± 10%	markedly decreased the binding affinity	77 ± 5%	restored the decreased affinity	71 ± 4%	more than 30 fold	101 ± 4%	markedly decreased the binding affinity		C[C@@H](O)[C@H](NC(=O)[C@H](CC(N)=O)NC(=O)[C@@H](NC(=O)[C@H](CCCNC(=N)N)NC(=O)[C@@H]1CCCN1C(=O)[C@H](Cc1ccc(O)cc1)NC(=S)Nc1ccc2c(c1)C(=O)OC21c2ccc(O)cc2Oc2cc(O)ccc21)[C@@H](C)O)C(=O)NCC(=O)N[C@@H](CO)C(=O)NCC(=O)N[C@H](C(=O)N1CCC[C@H]1C(N)=O)[C@@H](C)O [FITC-sCT(22–32)] ({FITC}-YPRTNTGSGTP-NH2; C-terminus assumed)	partially restored the decreased affinity	fully restored the decreased binding affinity
68 ± 3%	87 ± 15%	markedly decreased the binding affinity	88 ± 8%		67 ± 8%		97 ± 3%	markedly decreased the binding affinity	failed to restore the decreased affinity	CC(C)C[C@H](NC(=O)[C@H](CCCNC(=N)N)NC(=O)[C@@H](NC(=O)[C@H](CC(C)C)NC(=O)[C@H](Cc1ccccc1)NC(=O)[C@H](CC(N)=O)NC(=O)[C@H](C)NC(=S)Nc1ccc2c(c1)C(=O)OC21c2ccc(O)cc2Oc2cc(O)ccc21)C(C)C)C(=O)N[C@@H](CCC(N)=O)C(=O)N[C@H](C(=O)N[C@@H](Cc1ccc(O)cc1)C(=O)N1CCC[C@H]1C(=O)N[C@@H](CCCNC(=N)N)C(=O)N[C@H](C(=O)N[C@@H](CC(N)=O)C(=O)N[C@H](C(=O)NCC(=O)N[C@@H](C)C(=O)N[C@@H](CC(N)=O)C(=O)N[C@H](C(=O)N1CCC[C@H]1C(N)=O)[C@@H](C)O)C(C)C)[C@@H](C)O)[C@@H](C)O [FITC-AC413(6–25) Y25P] ({FITC}-ANFLVRLQTYPRTNVGANTP-NH2; C-terminus assumed)	not significantly changed	failed to restore the decreased binding affinity
